# Reference: article PMC9851200, “Multiparameter phenotypic screening for endogenous TFEB and TFE3 translocation identifies novel chemical series modulating lysosome function” (Autophagy, 2022)
# Columns and labels:
# Assay type in all cases: binding
# [1] = biological target: kinases (KINOMEscan panel) (Homo sapiens, UniProt Q16512); conditions: NEW KINOMEscan
# [2] = biological target: T1, kinases (KINOMEscan panel) (Homo sapiens, UniProt Q9UQ88); conditions: NEW KINOMEscan
# T1 sequence (Q9UQ88 1-783): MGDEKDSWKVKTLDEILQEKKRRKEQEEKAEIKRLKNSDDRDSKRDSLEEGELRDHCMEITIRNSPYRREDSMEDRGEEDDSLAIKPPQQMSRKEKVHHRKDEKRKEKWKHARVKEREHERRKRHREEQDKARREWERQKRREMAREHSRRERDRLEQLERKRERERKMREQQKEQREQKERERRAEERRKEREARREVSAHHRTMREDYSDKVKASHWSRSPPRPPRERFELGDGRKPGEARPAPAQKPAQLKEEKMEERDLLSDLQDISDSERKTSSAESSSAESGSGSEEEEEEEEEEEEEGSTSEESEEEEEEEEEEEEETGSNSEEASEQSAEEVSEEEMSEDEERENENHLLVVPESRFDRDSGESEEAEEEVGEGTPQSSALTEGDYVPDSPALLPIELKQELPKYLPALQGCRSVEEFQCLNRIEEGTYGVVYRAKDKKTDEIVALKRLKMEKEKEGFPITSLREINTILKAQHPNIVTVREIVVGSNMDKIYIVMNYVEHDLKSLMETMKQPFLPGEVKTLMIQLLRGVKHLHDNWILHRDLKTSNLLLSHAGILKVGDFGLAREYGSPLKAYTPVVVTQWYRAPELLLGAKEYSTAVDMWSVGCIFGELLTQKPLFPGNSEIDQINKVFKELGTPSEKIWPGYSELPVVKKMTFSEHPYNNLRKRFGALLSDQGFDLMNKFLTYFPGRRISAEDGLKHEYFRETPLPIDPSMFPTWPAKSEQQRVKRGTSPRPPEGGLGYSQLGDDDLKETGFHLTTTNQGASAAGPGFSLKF
# [3] = biological target: T2, kinases (KINOMEscan panel) (Homo sapiens, UniProt Q96PY6); conditions: kinase NEK1; NEW KINOMEscan
# T2 sequence (Q96PY6 1-1258): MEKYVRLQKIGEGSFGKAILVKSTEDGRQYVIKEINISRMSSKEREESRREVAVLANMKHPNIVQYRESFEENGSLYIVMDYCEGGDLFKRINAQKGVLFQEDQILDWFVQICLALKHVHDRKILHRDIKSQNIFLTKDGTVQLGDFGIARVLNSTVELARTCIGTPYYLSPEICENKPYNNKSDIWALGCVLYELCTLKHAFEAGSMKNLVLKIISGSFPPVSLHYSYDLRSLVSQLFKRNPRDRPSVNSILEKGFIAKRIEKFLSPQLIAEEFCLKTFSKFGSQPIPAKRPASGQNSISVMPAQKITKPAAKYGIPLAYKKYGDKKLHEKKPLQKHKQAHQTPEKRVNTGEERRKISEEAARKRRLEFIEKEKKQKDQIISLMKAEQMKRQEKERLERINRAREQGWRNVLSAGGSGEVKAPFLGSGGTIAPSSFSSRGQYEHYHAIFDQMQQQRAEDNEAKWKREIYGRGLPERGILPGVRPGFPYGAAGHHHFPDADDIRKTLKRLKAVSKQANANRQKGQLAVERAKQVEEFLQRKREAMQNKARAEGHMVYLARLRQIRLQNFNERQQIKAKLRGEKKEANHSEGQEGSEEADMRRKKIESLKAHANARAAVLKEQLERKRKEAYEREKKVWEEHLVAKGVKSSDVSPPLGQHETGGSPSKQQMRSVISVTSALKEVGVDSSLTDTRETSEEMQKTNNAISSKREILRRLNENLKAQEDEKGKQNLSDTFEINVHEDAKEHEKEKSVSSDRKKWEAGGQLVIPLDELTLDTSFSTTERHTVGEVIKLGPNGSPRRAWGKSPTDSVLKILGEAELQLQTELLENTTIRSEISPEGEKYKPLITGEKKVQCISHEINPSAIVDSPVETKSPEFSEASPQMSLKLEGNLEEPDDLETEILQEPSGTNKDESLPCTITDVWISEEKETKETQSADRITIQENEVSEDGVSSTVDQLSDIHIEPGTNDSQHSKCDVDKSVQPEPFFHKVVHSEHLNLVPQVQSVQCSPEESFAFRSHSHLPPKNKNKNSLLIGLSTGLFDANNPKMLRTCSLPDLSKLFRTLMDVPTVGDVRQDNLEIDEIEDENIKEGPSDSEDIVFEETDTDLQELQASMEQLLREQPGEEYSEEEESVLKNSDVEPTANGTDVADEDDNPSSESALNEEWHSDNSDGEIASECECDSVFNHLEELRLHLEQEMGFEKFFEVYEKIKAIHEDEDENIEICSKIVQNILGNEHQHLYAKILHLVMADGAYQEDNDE
# Chain of kinases (KINOMEscan panel) (Homo sapiens, UniProt Q16512) (Q16512 whole entry): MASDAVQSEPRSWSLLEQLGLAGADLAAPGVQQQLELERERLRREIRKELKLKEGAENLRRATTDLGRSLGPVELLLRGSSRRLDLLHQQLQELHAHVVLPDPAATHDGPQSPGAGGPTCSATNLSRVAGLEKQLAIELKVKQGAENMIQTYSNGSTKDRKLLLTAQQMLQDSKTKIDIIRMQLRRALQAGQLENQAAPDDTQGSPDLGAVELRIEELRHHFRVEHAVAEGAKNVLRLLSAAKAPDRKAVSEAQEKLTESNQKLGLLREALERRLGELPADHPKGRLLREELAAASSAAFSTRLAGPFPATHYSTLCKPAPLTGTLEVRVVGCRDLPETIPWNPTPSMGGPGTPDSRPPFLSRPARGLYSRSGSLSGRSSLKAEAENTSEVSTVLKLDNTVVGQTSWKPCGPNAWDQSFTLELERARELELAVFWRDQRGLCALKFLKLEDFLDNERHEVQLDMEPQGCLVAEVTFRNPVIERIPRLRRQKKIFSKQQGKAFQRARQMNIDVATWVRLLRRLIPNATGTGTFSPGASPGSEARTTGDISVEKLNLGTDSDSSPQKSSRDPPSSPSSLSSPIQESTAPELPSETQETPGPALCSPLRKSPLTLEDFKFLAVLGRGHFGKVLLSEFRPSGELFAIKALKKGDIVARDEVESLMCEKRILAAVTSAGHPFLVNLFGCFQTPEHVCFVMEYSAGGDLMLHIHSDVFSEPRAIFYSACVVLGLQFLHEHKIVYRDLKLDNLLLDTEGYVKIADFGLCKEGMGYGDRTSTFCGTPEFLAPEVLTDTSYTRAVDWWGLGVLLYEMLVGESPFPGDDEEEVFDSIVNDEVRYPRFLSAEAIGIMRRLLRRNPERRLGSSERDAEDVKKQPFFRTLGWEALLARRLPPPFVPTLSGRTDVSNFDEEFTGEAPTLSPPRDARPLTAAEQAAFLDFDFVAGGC
SMILES,KINOMEscan PKN1 [1],KINOMEscan CDK11A [2],KINOMEscan NEK1 [3]
Cc1cccc(-c2nc(Nc3ccc4nn(C)cc4c3)c3ccccc3n2)n1 [NK167],0,24,0
Cc1cccc(-c2nc(N(C)c3ccc4ncsc4c3)c3ccccc3n2)n1 [NK-161],0,25,0
